This is an account of results in ChEMBL document CHEMBL1144250, “3D QSAR studies on GSK-3 inhibition by aloisines” (Bioorg Med Chem Lett, 2005).

Each structure is given as a SMILES string.

This experiment addresses Glycogen synthase kinase-3 (Homo sapiens, UniProt P49840+P49841). The experiment can be described thus: Inhibitory concentration against Glycogen synthase kinase-3. The class given is protein assay.
In the case of `COc1ccc(-c2[nH]c3nccnc3c2C)cc1`, the “Log IC50” value is -6.34.
The result for `Cc1c(-c2ccc(Cl)cc2)[nH]c2nccnc12` reads -5.77; that for `COc1ccc(-c2[nH]c3nccnc3c2C(C)C)cc1`, -6.3; that for `COc1ccc(-c2[nH]c3nccnc3c2CC2CC2)cc1`, -5.96.
With `Oc1ccc(-c2[nH]c3nccnc3c2CC2CC2)cc1` the figure was -5.52; with `N#Cc1ccc(-c2cc3[nH]ccnc-3n2)cc1`, -5.32.
Regarding `CCCc1c(-c2ccc(O)cc2)[nH]c2nccnc12`, the “Log IC50” value is on record as -5.74.
The result for `CCCCc1c(-c2ccc(OC)cc2)[nH]c2nccnc12` [ALOISINE] reads -6.04; that for `CC(C)c1c(-c2ccc(Cl)cc2)[nH]c2nccnc12`, -6.12.
The result for `Cc1c(-c2ccc(OS(=O)(=O)N(C)C)cc2)[nH]c2nccnc12` reads -6.3; that for `COc1cc(OC)cc(-c2cc3[nH]ccnc-3n2)c1`, -4.22; that for `FC(F)(F)c1ccc(-c2cc3[nH]ccnc-3n2)cc1`, -5.14.
The result for `Oc1ccc(-c2cc3[nH]ccnc-3n2)cc1` reads -5.92; that for `COc1cc(-c2cc3[nH]ccnc-3n2)cc(OC)c1OC`, -4.7.
For the compound `Clc1ccc(-c2[nH]c3nccnc3c2CC2CCCCC2)cc1`, the “Log IC50” value is -5.1.
`COc1ccc(-c2[nH]c3nccnc3c2CCCCl)cc1`: the “Log IC50” value is -5.6.
With `Cc1ccc(-c2cc3[nH]ccnc-3n2)cc1` the figure was -5.59; with `COc1ccc(-c2[nH]c3nccnc3c2C)cc1OC`, -5.7; with `Clc1ccc(-c2[nH]c3nccnc3c2Cc2ccccc2)cc1`, -5.17.
The result for `CCCCc1c(-c2ccc(Cl)cc2)[nH]c2nccnc12` reads -5.23; that for `COc1ccc(-c2[nH]c3nccnc3c2CC2CCCCC2)cc1`, -5.17; that for `CCCCCCCc1c(-c2ccc(OC)cc2)[nH]c2nccnc12`, -5.
The result for `Brc1ccc(-c2cc3[nH]ccnc-3n2)cc1` reads -5.22.
With `Cc1c(-c2ccc(O)cc2)[nH]c2nccnc12`, the “Log IC50” value is given as -6.28.
The result for `COc1ccccc1-c1cc2[nH]ccnc-2n1` reads -5.48; that for `COc1ccc(-c2cc3[nH]ccnc-3n2)cc1`, -5.96.
Take `Oc1ccccc1-c1cc2[nH]ccnc-2n1`: the “Log IC50” value is recorded as -5.19.
Regarding `CCCc1c(-c2ccc(OC)cc2)[nH]c2nccnc12`, the “Log IC50” value was -6.4.
With `c1ccc(Cc2c(-c3ccccc3)[nH]c3nccnc23)cc1` the figure was -6; with `C=CCc1c(-c2ccc(OC)cc2)[nH]c2nccnc12`, -6.22; with `CN(C)c1ccc(-c2cc3[nH]ccnc-3n2)cc1`, -4.92.
The result for `Fc1ccc(-c2cc3[nH]ccnc-3n2)cc1` reads -5.72; that for `COc1cccc(-c2cc3[nH]ccnc-3n2)c1`, -5.5; that for `c1ccc(-c2cc3[nH]ccnc-3n2)cc1`, -5.64.
